Data: article PMC8564487, “MHC-Optimized Peptide Scaffold for Improved Antigen Presentation and Anti-Tumor Response” (Frontiers in Immunology, 2021)

Legend:
Type in all cases: in vivo, C57BL/6 mice
[1] = system: splenocytes; assay: IFN-γ EliSpot cross-reactivity between wt and htcPep after immunization; details: mice immunized with NAL peptide, splenocytes re-stimulated with the labelled peptide
Experimental: C57BL/6 mice were immunized with the different htcPep. In particular, each group of animals (6 for each group) were injected by sub-cutaneous (s.c.) route with 100 µg of WT, INC (mix of selected htcPep), NAL or MIX peptides (peptide library) respectively, emulsified with 50 μg of Polyinosinic:polycytidylic acid [poly(I:C); InvivoGen] adjuvant formulated in PBS (200ul total volume). Each group received weekly the peptide vaccine in combination with metronomic chemotherapy (MCT) and ICI. One group was treated only with MCT and ICI (MCT + ICI group). Control mice were treated with endotoxin-free phosphate-buffered saline (PBS). Splenocytes were re-stimulated ex-vivo O/N with the different peptides in an IFN-γ EliSpot assay.
ELISPOT was performed according to BD Biosciences manufacturer instructions (BD ELISPOT Mouse IFN-γ ELISPOT Set cod. 551083). 5x10^5 splenocytes or 2 x10^5 tumor infiltrated lymphocytes (TIL) were counted and plated in each well. […]
Both splenocytes and TILs were stimulated with 10ug/ml of single or peptide pool used for the immunization and incubated for 24-26h. […] The plates were read with an AID EliSpot Reader Systems (AID GmbH, Strassberg, Germany). The results were calculated as spot forming counts as a mean of a duplicate count from the specific antigen stimulation minus the negative control.

[2] = system: B16F10 tumors; assay: IHC of tumor-infiltrating lymphocytes in B16F10 tumors; details: B16F10 tumors at sacrifice, Trp2 groups, Central Tumor
Source text: Formalin-Fixed Paraffin-Embedded (FFPE) sections were stained with CD3+, FoxP3 and Granzime B antibodies manually. Visualization of the antibody–antigen reaction was visualized by anti-alkaline phosphatase methods using Vulcan fast red (Biocare Medical FR805S) as the chromogenic substrate. Finally, sections were weakly counterstained with hematoxylin and mounted.
Lymphocyte densities (cells/mm2) were quantified in the tumor (CT) and invasive margin (IM) by digital pathology. The slides were scanned with Aperio AT2 (Leica) and the areas (CT, IM) were selected by an experienced pathologist (MDB). Finally, the acquired images were quantified using QuPath 0.2.3.
To evaluate the balance between cytotoxic and immune suppressive activity of B16 tumor model a formula considering the numerical difference between the GrzB+ cells (cytotoxic cells) and the FOXP3+ cells (immunosuppressive cells), on total CD3+ cells, was applied. The formula is schematized as:
Ratio=(# of GRZB−# of FOXP3)/# of CD3.

[3] = system: B16F10 tumors; assay: Tumor necrosis rate (H&E) in B16F10 tumors; details: H&E staining
Experimental: Finally, tumor necrosis rates were evaluated for each tumor lesion. The slides were stained with hematoxylin and eosin and then subjected to reading and determination of areas of necrosis. For percentage of necrosis through the tumor mass, was used the following formula: …
%necrosis area: (necrosis area/total tumoral mass area)∗100

## D4W: heteroclitic Trp2 peptide with Tryptophan substitution at position 4 (SVYWFFVWL; UniProt P29812 180-188, looked up, variant D183W)
[1]; Trp2 series
  T cell cross-reactivity of NAL-immunized animals with challenging htcPep: strongest T cells cross-reactivity

## Trp2 wt: wild type Trp2 H-2Db epitope expressed by B16F10 melanoma cells (SVYDFFVWL; Trp2 H-2Db epitope; UniProt P29812 180-188, looked up, fragment)
[2]
  Average number of FOXP3+ T cells, CT area: 2.8
[3]
  % of necrosis (necrosis area/total tumoral mass area): 10%

## Y4W: heteroclitic E7 peptide with Tryptophan substitution at position 4 (RAHWNIVTF; UniProt P03129 49-57, looked up, variant Y52W)
[1]; HPV-E7 series
  T cell cross-reactivity of NAL-immunized animals with challenging htcPep: strongest T cells cross-reactivity
